Here are results for twelve molecules from ChEMBL document CHEMBL1201862, “PubChem BioAssay data set” (2004).

Structures are written as SMILES.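 1) Cells in 96-well plates. 2) Compound, 48 h, 5 concentrations. 3) Linear interpolation between surrounding doses. 4) Unreached endpoint = highest concentration. GI50 = concentration required for 50% inhibition of growth.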 Calls of active or inactive are those of the source. Rule as the data show it: active = GI50 up to about 1.1 µM and inactive = higher. Some results are limits rather than exact numbers.

Some test systems named below: IGROV-1; UACC-62; OVCAR-3; OVCAR-5; U-251; T47D; SK-MEL-2; 786-0; CAKI-1; SNB-75; HOP-92; RPMI-8226; DU-145; HCT-116; Hs-578T; CCRF-CEM; HT-29.
Assay in all cases: growth of human tumour cells (NCI), 48 h

`COc1cccc(OCC(=N/NC(=O)c2ccncc2)/N=C/c2cccnc2)c1`: the GI50 in the assay with IGROV-1, in the assay on UACC-62, in the assay on OVCAR-3, with OVCAR-5, in the assay with U-251 and in the assay on T47D was > 100 µM (inactive) throughout. In addition, the GI50 is > 100 µM (inactive) with SK-MEL-2; > 100 µM (inactive) with 786-0; > 100 µM (inactive) with CAKI-1; > 100 µM (inactive) in the assay with SNB-75; 21 µM (inactive) in the assay with HOP-92; 68.2 µM (inactive) with RPMI-8226. The GI50 in the assay on DU-145, with HCT-116, with Hs-578T, with CCRF-CEM and in the assay on HT-29 was > 100 µM (inactive) in each case.

On to `NC(=O)CN1CC(C2=C(O)CN(CC(N)=O)C2=O)=CC1=O`, for which the GI50 in the assay on IGROV-1, in the assay with UACC-62, in the assay with OVCAR-3, in the assay on OVCAR-5, with U-251 and in the assay with T47D was > 100 µM (inactive) throughout. Besides, the GI50 in the assay with SK-MEL-2, with 786-0, with CAKI-1, in the assay on SNB-75, in the assay with HOP-92 and with RPMI-8226 was > 100 µM (inactive) throughout. Moreover, the GI50 with DU-145, with HCT-116, with Hs-578T, in the assay with CCRF-CEM and in the assay with HT-29 was > 100 µM (inactive) in each case.

Consider `N#C/C(=C\c1cn(Cc2ccccc2)c2ccccc12)c1nn(-c2ccccc2)c(N)c1C#N`, for which the GI50 in the assay on IGROV-1 was 12.8 µM (inactive); in the assay on UACC-62 it was 10.8 µM (inactive); with OVCAR-3, 18.2 µM (inactive); in the assay on OVCAR-5, 18.8 µM (inactive); with U-251 it was 13.6 µM (inactive); with T47D, 1.33 µM (inactive). In addition, the GI50 in the assay with SK-MEL-2 is 4.65 µM (inactive); in the assay on 786-0, 7.83 µM (inactive); in the assay on CAKI-1, 17.4 µM (inactive); in the assay with SNB-75, 4.07 µM (inactive); in the assay on HOP-92 it was 8.41 µM (inactive); in the assay with RPMI-8226, 19.8 µM (inactive). Further, the GI50 was 11.1 µM (inactive) in the assay on DU-145; 16.4 µM (inactive) in the assay on HCT-116; 25.6 µM (inactive) with Hs-578T; 19.1 µM (inactive) in the assay with CCRF-CEM; 11.3 µM (inactive) in the assay with HT-29.

With `c1ccc(Cc2cccc3cc(-c4ccc(-c5ccccc5)cc4)[nH]c23)cc1`, the GI50 with IGROV-1 is > 100 µM (inactive); in the assay with UACC-62, > 100 µM (inactive); in the assay with OVCAR-3 it was > 100 µM (inactive); in the assay on OVCAR-5, > 100 µM (inactive); in the assay with U-251, 70.6 µM (inactive); in the assay with T47D it was > 100 µM (inactive). Also, the GI50 was > 100 µM (inactive) with SK-MEL-2; > 100 µM (inactive) in the assay on 786-0; 75.7 µM (inactive) in the assay on CAKI-1; 22.5 µM (inactive) with SNB-75; > 100 µM (inactive) in the assay on HOP-92; 71.4 µM (inactive) in the assay on RPMI-8226. Also, the GI50 in the assay on DU-145 is 54.6 µM (inactive); with HCT-116 it was > 100 µM (inactive); in the assay on Hs-578T, 14.7 µM (inactive); in the assay with CCRF-CEM, 30.1 µM (inactive); in the assay on HT-29 it was > 100 µM (inactive).

Regarding `CC(C)CC1C(=O)NCCC(NC(=O)C(N)Cc2ccc(O)cc2)C(=O)NC(Cc2ccccc2)C(=O)NC(Cc2ccccc2)NC1=O` (stereo not given), the GI50 with IGROV-1, in the assay on UACC-62, in the assay on OVCAR-3, in the assay with OVCAR-5, in the assay with U-251 and in the assay on T47D was > 100 µM (inactive) each time. For the same molecule, the GI50 is > 100 µM (inactive) in the assay on SK-MEL-2; > 100 µM (inactive) in the assay on 786-0; > 100 µM (inactive) in the assay with CAKI-1; > 100 µM (inactive) in the assay with SNB-75; 72.9 µM (inactive) in the assay with HOP-92; 78.2 µM (inactive) in the assay on RPMI-8226. Moreover, the GI50 in the assay on DU-145 was > 100 µM (inactive); in the assay on HCT-116 it was > 100 µM (inactive); in the assay on Hs-578T, 0.885 µM (active); with CCRF-CEM, > 100 µM (inactive); in the assay on HT-29 it was > 100 µM (inactive).

In the case of `Cc1c(C(=O)c2ccc(N)c3ccccc23)c2ccccc2n1CCN1CCOCC1`, the GI50 in the assay on IGROV-1 was 27.1 µM (inactive); in the assay with UACC-62, 16.4 µM (inactive); in the assay on OVCAR-3, 15.7 µM (inactive); in the assay on OVCAR-5, 25.9 µM (inactive); in the assay on U-251, 2.77 µM (inactive); in the assay with T47D, 31.5 µM (inactive). For the same molecule, the GI50 in the assay with SK-MEL-2 was 18.6 µM (inactive); in the assay on 786-0, 28 µM (inactive); in the assay on CAKI-1, 7.85 µM (inactive); in the assay with SNB-75, 2.62 µM (inactive); in the assay with HOP-92, 21.9 µM (inactive); in the assay on RPMI-8226 it was 23.6 µM (inactive). In addition, the GI50 with DU-145 is 31.1 µM (inactive); in the assay with HCT-116, 19.5 µM (inactive); in the assay with Hs-578T, 0.759 µM (active); with CCRF-CEM it was 2.9 µM (inactive); in the assay on HT-29, 22.4 µM (inactive).

Take `OC(c1cc2ccc(C(F)(F)F)cc2c2cc(C(F)(F)F)ccc12)C1CCCCN1` (stereo not given): the GI50 in the assay on IGROV-1 is 1.74 µM (inactive); in the assay on UACC-62 it was 2.06 µM (inactive); in the assay with OVCAR-3, 1.63 µM (inactive); in the assay with OVCAR-5, 1.77 µM (inactive); in the assay with U-251 it was 1.71 µM (inactive); with T47D, 1.87 µM (inactive). The GI50 is 1.91 µM (inactive) in the assay with SK-MEL-2; 1.58 µM (inactive) in the assay with 786-0; 1.8 µM (inactive) in the assay with CAKI-1; 1.29 µM (inactive) with SNB-75; 1.74 µM (inactive) with HOP-92; 2.17 µM (inactive) with RPMI-8226. Further, the GI50 is 1.8 µM (inactive) in the assay with DU-145; 1.46 µM (inactive) in the assay with HCT-116; 1.9 µM (inactive) in the assay on Hs-578T; 1.78 µM (inactive) with CCRF-CEM; 2.07 µM (inactive) in the assay with HT-29.

With `CC(=O)OCC1(C)C(O)CCC2(C)C1CCC1CC3CC12CCC3(O)CO` (stereo not given), the GI50 in the assay with IGROV-1 is > 47 µM (inactive); in the assay with UACC-62 it was 61.8 µM (inactive); with OVCAR-3 it was > 100 µM (inactive); with OVCAR-5 it was > 100 µM (inactive); with U-251 it was > 100 µM (inactive); in the assay with T47D it was > 100 µM (inactive). Besides, the GI50 in the assay with SK-MEL-2 was > 100 µM (inactive); with 786-0, 44.4 µM (inactive); in the assay with CAKI-1, 17.9 µM (inactive); with SNB-75, > 100 µM (inactive); in the assay with HOP-92, > 81.5 µM (inactive); in the assay with RPMI-8226 it was 47.5 µM (inactive). The GI50 in the assay with DU-145 is 42.6 µM (inactive); in the assay on HCT-116, 76 µM (inactive); in the assay on Hs-578T, > 53.6 µM (inactive); in the assay with CCRF-CEM, 9.77 µM (inactive); in the assay with HT-29, 34.3 µM (inactive).

Consider `CS(=O)(=O)c1ccc(C2=C(c3ccccc3)C(=O)OC2)cc1` [ROFECOXIB], for which the GI50 in the assay with IGROV-1, in the assay with UACC-62, with OVCAR-3, in the assay with OVCAR-5, in the assay with U-251 and in the assay on T47D was > 100 µM (inactive) in each case. For the same molecule, the GI50 in the assay with SK-MEL-2, in the assay with 786-0, in the assay with CAKI-1, in the assay with SNB-75, with HOP-92 and with RPMI-8226 was > 100 µM (inactive) throughout. Moreover, the GI50 in the assay on DU-145, with HCT-116, with Hs-578T and with CCRF-CEM was > 100 µM (inactive) each time.

Take `CC(C)NCCC(O)c1cc2ccccc2o1` (stereo not given): the GI50 in the assay on IGROV-1, in the assay on UACC-62, with OVCAR-3, in the assay on OVCAR-5, in the assay with U-251 and in the assay on T47D was > 100 µM (inactive) throughout. For the same molecule, the GI50 in the assay with SK-MEL-2 was > 100 µM (inactive); in the assay on 786-0, > 100 µM (inactive); in the assay on CAKI-1, > 100 µM (inactive); in the assay on SNB-75 it was 7.67 µM (inactive); in the assay with HOP-92 it was > 100 µM (inactive); in the assay with RPMI-8226, > 100 µM (inactive). For the same molecule, the GI50 with DU-145, with HCT-116, with Hs-578T and in the assay with HT-29 was > 100 µM (inactive) in each case.

On to `CCCCCCCC/C=C\CCCCCCC(F)C(=O)O` (stereo not given), for which the GI50 in the assay on IGROV-1, in the assay on OVCAR-3, with OVCAR-5, in the assay with U-251, in the assay with T47D and in the assay on SK-MEL-2 was > 12.5 µM (inactive) each time. In addition, the GI50 with 786-0 was > 12.5 µM (inactive); in the assay with CAKI-1 it was > 12.5 µM (inactive); in the assay with SNB-75, > 12.5 µM (inactive); in the assay with HOP-92, > 12.5 µM (inactive); in the assay on RPMI-8226, 11.2 µM (inactive); in the assay on DU-145, > 12.5 µM (inactive). The GI50 in the assay with HCT-116, with Hs-578T, with CCRF-CEM and in the assay with HT-29 was > 12.5 µM (inactive) throughout.

Take `Clc1cc(Cl)c2cc3cccc[n+]3cc2c1Cl`: the GI50 in the assay on UACC-62 is 15.3 µM (inactive); with OVCAR-3 it was 12.1 µM (inactive); in the assay on OVCAR-5 it was 19.2 µM (inactive); in the assay with U-251, 16.7 µM (inactive); with T47D, 7.64 µM (inactive); in the assay with SK-MEL-2 it was 16.3 µM (inactive). The GI50 is 18.7 µM (inactive) in the assay with 786-0; 6.17 µM (inactive) with CAKI-1; 12 µM (inactive) in the assay with SNB-75; 5.87 µM (inactive) with HOP-92; 16.4 µM (inactive) with RPMI-8226; 15.2 µM (inactive) in the assay on DU-145. Further, the GI50 with HCT-116 is 6.44 µM (inactive); with Hs-578T, 18.1 µM (inactive); in the assay on CCRF-CEM, 12.1 µM (inactive); with HT-29 it was 15.5 µM (inactive).
